Where two headings read alike, the source gives them in different places.
Columns and labels:
[1] = tested on: Monomac1 acute myeloid leukemia model; experiment: Monomac1 xenograft tumor growth inhibition; assay type: in vivo, mice; conditions: 50MK 2ON/2OFF/5ON/2OFF/4ON, PO, alone
Description: The in vivo therapeutic effect of a CD74-targeting ADC formulated in Phosphate-Buffered Saline (PBS) was determined in Monomac1 acute myeloid leukemia model after intravenous (IV) administration. The following compounds were tested: CD74-targeting ADC is anti-CD74_CysmAb Fc silent_L5-P1, IgG1-Linker-Payload Fc silent, and anti-CD74_CysmAb Fc silent.
Monomac1 cells, obtained from DSMZ, were cultured in RPMI supplemented with 10% FBS. 0.1 ml containing 5×10^6 cells were subcutaneously inoculated into the right flank of female SCID mice, provided by Charles River. When tumors reached the appropriate volume, mice were randomized, 6 animals per group, using Easy stat software. IgG1-Linker-Payload Fc silent, anti-CD74_CysmAb Fc silent and anti-CD74_CysmAb Fc silent_L5-P1 (30 mg/kg) were injected once IV in PBS. Venetoclax (synthetized at the Servier Research Institute—IdRS) was formulated in PEG/EtOH/Phosal (Polyethylene glycol/ethanol/phosal, 30/10/60) and administered per os (PO) daily on weekdays (50 mpk, 2ON/2OFF/5ON/2OFF/4ON). Mice body weight was monitored three times a week and tumor size measured using electronic calipers. Tumor volume was estimated by measuring the minimum and maximum tumor diameters using the formula: (minimum diameter)^2(maximum diameter)/2. The last day with at least half of control animals still present in the study (d16), tumor growth inhibition was calculated using the formula:
With DTV (Delta Tumor Volume) at Dx, calculated being TV at Dx-TV at Randomization. […] Mice were sacrificed at the first measurement for which tumor volume exceeded 2000 mm^3 or at the first signs of animal health deterioration. […] SCID mice were maintained according to institutional guidelines.

[2] = tested on: EOL1 human acute myeloid (eosinophilic) leukemia xenograft model; experiment: EOL1 xenograft, CD74-L5-P1 Fc silent with venetoclax (Example 14); assay type: in vivo, mice
Description: EOL1 luciferase transfected cells were cultured at 37° C. in an atmosphere of 5% CO2 in air in RPMI1640 (BioConcept Ltd. Amimed) supplemented with 10% FCS (BioConcept Ltd. Amimed, #2-01 F30-1), 2 mM L-glutamine (BioConcept Ltd. Amimed, #5-10K00-H) and 1 mM sodium pyruvate (BioConcept Ltd. Amimed, #5-60F00-H), 10 mM HEPES (Gibco #11560496). To establish EOL1 xenografts cells were harvested and re-suspended in HBSS (Gibco, #14175) before injecting 100 μL containing 5×10^6 cells subcutaneously in the flanks of female SCID beige mice (Charles River, Germany). Tumor growth was monitored regularly post cell inoculation and animals were randomized into treatment groups (n=6) with a mean tumor volume of about 130 mm^3. CD74-L5-P1 Fc silent, isotype IgG1 ADC Fc silent and CD74 Fc silent antibody were administered intravenously (iv) once at the start of treatment at the doses indicated in FIG. 12 either alone or in combination with venetoclax which was administered orally (po) daily (qd) at 50 mg/kg. Doses were adjusted to individual mouse body weights. The iv dose volume was 10 ml/kg and each ADC was dissolved in 0.9% (w/v) NaCl in water. Tumor volume data on day 10 post treatment were analyzed statistically using Kruskal-Wallis rank sum test (Indigo Software). When applicable, results are presented as mean±SEM. As a measure of efficacy the % T/C value is calculated on day 10 according to:
(§1) (Δtumor volume^treated/Δtumor volume^control)*100
(§2) Tumor regression was calculated according to:
(§3) −(Δtumor volume^treated/tumor volume^treated at start)*100
(§4) Where Δtumor volumes represent the mean tumor volume on the evaluation day minus the mean tumor volume at the start of the experiment.

[3] = tested on: Nomo1 acute myeloid leukemia model; experiment: Nomo1 xenograft tumor growth inhibition; assay type: in vivo; conditions: female SCID mice, 50 MK 4ON/3OFF/4ON, PO, alone, day 9
Description: The in vivo therapeutic effect of a CD74-targeting ADC formulated in Phosphate-Buffered Saline (PBS) is determined in Nomo1 acute myeloid leukemia model after intravenous (IV) administration. The follow compounds were tested: anti-CD74_CysmAb Fc silent_L5-P1, anti-CD74_CysmAb Fc silent and IgG1-Linker-Payload Fc silent.
Nomo1 cells, obtained from DSMZ, were cultured in RPMI supplemented with 10% FBS. 0.1 ml containing 5×10^6 cells were subcutaneously inoculated into the right flank of female SCID mice, provided by Charles River. When tumors reached the appropriate volume, mice were randomized, 6 animals per group, using Easy stat software. IgG1-Linker-Payload Fc silent, anti-CD74_CysmAb Fc silent and anti-CD74_CysmAb Fc silent_L5-P1 (30 mg/kg) were injected once IV in PBS. Venetoclax (synthetized at the Servier Research Institute—IdRS) was formulated in PEG/EtOH/Phosal (Polyethylene glycol/ethanol/phosal, 30/10/60) and administered per os (PO) daily on weekdays (50 mpk, 4ON/3OFF/4ON). Mice body weight was monitored three times a week and tumor size measured using electronic calipers. […] The last day with at least half of animals of all groups still present in the study (d9), tumor growth inhibition was calculated using the formula: […]
With DTV (Delta Tumor Volume) at Dx, calculated being TV at Dx-TV at Randomization. […]

[4] = tested on: Karpas422 diffuse large B-cell lymphoma model; experiment: Karpas422 xenograft tumor growth inhibition; assay type: in vivo, mice; conditions: 50 MK 4ON/3OFF/4ON, PO, alone
Description: The in vivo therapeutic effect of a CD74-targeting ADC formulated in Phosphate-Buffered Saline (PBS) was determined in Karpas422 diffuse large B-cell lymphoma model after intravenous (IV) administration.
Karpas422 cells, obtained from ATCC, were cultured in RPMI supplemented with 20% FBS. Cells were resuspended in 100% Matrigel (BD Biosciences) and 0.1 ml containing 11×10^6 cells were subcutaneously inoculated into the right flank of female NSG mice, provided by Charles River. When tumors reached the appropriate volume, mice were randomized, 6 animals per group, using Easy stat software. IgG1-Linker-Payload Fc silent, anti-CD74_CysmAb Fc silent and anti-CD74_CysmAb Fc silent_L5-P1 (30 mg/kg) were injected once IV in PBS. Venetoclax (synthetized at the Servier Research Institute—IdRS) was formulated in PEG/EtOH/Phosal (Polyethylene glycol/ethanol/phosal, 30/10/60) and administered per os (PO) daily on weekdays (50 mpk, 4ON/3OFF/4ON). Mice body weight was monitored three times a week and tumor size measured using electronic calipers. Tumor volume was estimated by measuring the minimum and maximum tumor diameters using the formula: (minimum diameter)^2(maximum diameter)/2. The last day with at least half of control animals still present in the study (d23), tumor growth inhibition was calculated using the formula:
With DTV (Delta Tumor Volume) at Dx, calculated being TV at Dx-TV at Randomization. Response was evaluated as it follows: CR (Complete Response) if tumor size was <25 mm^3 for at least three measurements, PR (Partial Response) if tumor size was comprised between 25 mm^3 and 168.3 mm^3 (half of the starting size) for at least three measurements. Mice were sacrificed at the first measurement for which tumor volume exceeded 2000 mm^3 or at the first signs of animal health deterioration. […] SCID mice were maintained according to institutional guidelines.

[5] = tested on: Monomac1 cells; experiment: Viability of Monomac1 AML cell line, CellTiterGlo 72 h; assay type: cell-based; conditions: Mono-Mac-1, 72 h; read-out: IC50 M (CTG 72 h) Monomac1
Description: Monomac1 cells were cultivated in RPMI supplemented with 10% heat inactivated fetal bovine serum, penicillin (100 IU/ml), streptomycin ([…]) and L-glutamine (2 mM). Cell lines were cultured at 37° C. in a humidified atmosphere containing 5% CO2. Cells were seeded in 96 microwell plates and exposed to the payloads or ADCs for 72 h (serially diluted; 9 concentrations each, triplicates). Effects of payloads or ADCs on cell viability were assessed after 3 days of incubation at 37° C./5% CO2 by quantification of cellular ATP levels using CellTiterGlo at 75 μL reagent/well. All the conditions were tested in triplicates. Luminescence was quantified on a multipurpose plate reader. IC50s were calculated using standard four-parametric curve fitting. […] Each experiment was performed at least twice, with results being reproducible.

[6] = tested on: MONO-MAC-1; assay type: cell-based
Description: (§5) The CD74 MCL-1 antibody drug conjugates were tested against three endogenous cancer cell lines. MONO-MAC-1 (DSMZ No. ACC-252 cultured in RPMI-1640+10% FBS+1× non-essential amino acids+1 mM sodium pyruvate), NOMO-1 (DSMZ No. ACC-542 cultured in RPMI-1640+10% FBS) and EOL-1 (DSMZ No. ACC-386 cultured in RPMI-1640+10% FBS)
(§6) The ability of the CD74 MCL-1 antibody drug conjugates to inhibit cell proliferation in combination with BCL-2 inhibitor and survival was assessed using the Promega CellTiter-Glo® proliferation assay. Cell lines were cultured in media that is optimal for their growth at 5% CO2, 37° C. in a tissue culture incubator. Prior to seeding for the proliferation assay, the cells were split at least 2 days before the assay to ensure optimal growth density. On the day of seeding, suspension cells were harvested. Cell viability and cell density were determined using a cell counter (Vi-Cell XR Cell Viability Analyzer, Beckman Coulter). […] Cells were seeded at a density of 1,000 cells per well in 45 μL of standard growth media. Plates were incubated at 5% CO2, 37° C. overnight in a tissue culture incubator. The next day, free MCL-1 payload (P1), targeting MCL-1 ADCs and non-targeting isotype ADCs were prepared at 10× in standard growth media. The prepared drug treatments were then added to the cells resulting in final concentrations of 0.0005-300 nM and a final volume of 50 μL per well. Each drug concentration was tested in quadruplets. Three conditions were evaluated for each compound. The compounds were evaluated as single agents and in combination with Venetoclax and in combination with Compound A1. The Venetoclax and Compound A1 were dosed at either 5 nM or 50 nM final concentration. Plates were incubated at 5% CO2, 37° C. for 5 days in a tissue culture incubator, after which cell viability was assessed through the addition of 25 μL of CellTiter Glo® (Promega, cat#G7573), a reagent which lyses cells and measures total adenosine triphosphate (ATP) content. Plates were incubated at room temperature for 10 minutes to stabilize luminescent signals prior to reading using a luminescence reader (EnVision Multilabel Plate Reader, PerkinElmer). To evaluate the effect of the drug treatments, luminescent counts from wells containing untreated cells (100% viability) were used to normalize treated samples. A variable slope model was applied to fit a nonlinear regression curve to the data in GraphPad PRISM version 7.02 software. IC50 and Amax values were extrapolated from the resultant curves.

[7] = tested on: NOMO-1; assay type: cell-based
Description: as §5, §6

[8] = tested on: EOL-1; assay type: cell-based
Description: as §5, §6

[9] = tested on: EOL1 human acute myeloid (eosinophilic) leukemia xenograft model; experiment: EOL1 xenograft, CD74-ADCs Fc silent with different linker payloads (Example 15); assay type: in vivo, mice; conditions: 2.5 mg/kg i.v. once + Venetoclax 50 mg/kg p.o. qd
Description: To optimize the linker payload, efficacy of 6 CD74-ADCs with different linker payloads (L5-P1, L30-P1, L31-P1, L32-P1, L33-P1 and L34-P1) was evaluated in the EOL1 model in vivo.
EOL1 luciferase transfected cells were cultured at 37° C. in an atmosphere of 5% CO2 in air in RPM11640 (BioConcept Ltd. Amimed) supplemented with 10% FCS (BioConcept Ltd. Amimed, #2-01 F30-1), 2 mM L-glutamine (BioConcept Ltd. Amimed, #5-10K00-H) and 1 mM sodium pyruvate (BioConcept Ltd. Amimed, #5-60F00-H), 10 mM HEPES (Gibco #11560496). To establish EOL1 xenografts cells were harvested and re-suspended in HBSS (Gibco, #14175) before injecting 100 μL containing 5×10^6 cells subcutaneously in the flanks of female SCID beige mice (Charles River, Germany). Tumor growth was monitored regularly post cell inoculation and animals were randomized into treatment groups (n=6) with a mean tumor volume of about 130 mm^3. The ADCs were administered intravenously (iv) once at the start of treatment at 2.5 mg/kg or at 3.3 mg/kg in combination with venetoclax which was administered orally (po) daily (qd) at 50 mg/kg. Doses were adjusted to individual mouse body weights. The iv dose volume was 10 ml/kg and each ADC was dissolved in 0.9% (w/v) NaCl in water. Tumor volume data on day 10 post treatment were analyzed statistically using one way ANOVA post hoc Tukey's multiple comparisons test (Indigo Software). Results are presented as mean±SEM. As a measure of efficacy the % T/C value is calculated on day 10 according to:
as §1, §2, §3, §4

With `CC1(C)CCC(CN2CCN(c3ccc(C(=O)NS(=O)(=O)c4ccc(NCC5CCOCC5)c([N+](=O)[O-])c4)c(Oc4cnc5[nH]ccc5c4)c3)CC2)=C(c2ccc(Cl)cc2)C1` [Venetoclax] the “% CR” value [1] was 0%, the “% PR” value [1] was 0% and the “% TGI (d16)” value ([1]; female SCID mice, day 16) was 4.5%. The “T/C (%)” value ([2]; 50 mg/kg p.o. qd + vehicle for ADC, day 10) was 90%, the “ΔTumor volume (mm^3)” value ([2]; 50 mg/kg p.o. qd + vehicle for ADC, day 10, mean) was 977 mm^3 and the “antitumor effect (in words)” value ([2]; 50 mg/kg po qd alone) was “Limited efficacy”. For the same compound, the “% TGI (d9)” value [3] was 26.2%, the “% CR” value [4] was 0% and the “% PR” value [4] was 0%. The “% TGI (d23)” value ([4]; female NSG mice, day 23) was 31.1%.

For `COc1ccccc1-c1nccc(COc2ccc3cc2C[C@H](C(=O)O)Oc2ncnc4sc(-c5ccc(F)cc5)c(c24)-c2c(C)c(Cl)c(c(Cl)c2C)O[C@H](CN2CCN(C)CC2)CO3)n1` [P15, (11R,20R)-23,26-dichloro-3-(4-fluorophenyl)-14-[[2-(2-methoxyphenyl)pyrimidin-4-yl]methoxy]-24,25-dimethyl-20-[(4-methylpiperazin-1-yl)methyl]-10,18,21-trioxa-4-thia-6,8-diazapentacyclo[20.2.2.12,5.113,17.09,28]octacosa-1(25),2,5(28),6,8,13,15,17(27),22(26),23-decaene-11-carboxylic acid], the IC50 [5] was 0.386 nM.

`Cc1c(Cl)c2c(Cl)c(C)c1-c1c(-c3ccc(F)cc3)sc3ncnc(c13)O[C@@H](C(=O)O)Cc1cc(ccc1OCc1ccnc([C@H]3CC[C@H](OC[C@@H]4COCCO4)CC3)n1)OC[C@@H](CN1CCN(C)CC1)O2` [P17, (11R,20R)-23,26-dichloro-14-[[2-[4-[[(2S)-1,4-dioxan-2-yl]methoxy]cyclohexyl]pyrimidin-4-yl]methoxy]-3-(4-fluorophenyl)-24,25-dimethyl-20-[(4-methylpiperazin-1-yl)methyl]-10,18,21-trioxa-4-thia-6,8-diazapentacyclo[20.2.2.12,5.113,17.09,28]octacosa-1(24),2,5(28),6,8,13,15,17(27),22,25-decaene-11-carboxylic Acid] showed an IC50 [5] of 0.62 nM.

`COCCOCCOCCOCCOCCOCCOCCOCCOCCOCCOCCOCCOCCOCCOCCOCCOCCOCCOCCOCCOCCOCCOCCOCCn1cc(COCc2cc(NC(=O)[C@H](CCCNC(N)=O)NC(=O)[C@@H](NC(=O)CCOCCN3C(=O)CC(C)C3=O)C(C)C)ccc2C[N+]2(C)CCN(CCOc3ccc(-c4c(-c5ccc(F)cc5)sc5ncnc(O[C@H](Cc6ccccc6OCc6ccnc(-c7ccccc7OC)n6)C(=O)O)c45)c(C)c3Cl)CC2)nn1` (stereo partly drawn) [CD74-L5-P1] showed an IC50 ([6]; + 5 nM Compound A1, 5 days) of 0.636 nM, an IC50 ([6]; + 5 nM Venetoclax, 5 days) of 1.31 nM and an IC50 ([6]; + 50 nM Compound A1, 5 days) of 0.156 nM. The IC50 ([6]; + 50 nM Venetoclax, 5 days) was 0.409 nM, the “Amax (Span) MONO-MAC-1” value ([6]; single agent, 5 days) was 84.9 and the IC50 ([6]; single agent, 5 days) was 7.95 nM. The IC50 ([7]; + 5 nM Compound A1, 5 days) was 0.457 nM, the IC50 ([7]; + 5 nM Venetoclax, 5 days) was 1.03 nM and the IC50 ([7]; + 50 nM Compound A1, 5 days) was 0.138 nM. The IC50 ([7]; + 50 nM Venetoclax, 5 days) was 0.278 nM, the “Amax (Span) NOMO-1” value ([7]; single agent, 5 days) was 74.45 and the IC50 ([7]; single agent, 5 days) was 3.7 nM. For the same compound, the IC50 ([8]; + 5 nM Compound A1, 5 days) was 0.136 nM, the IC50 ([8]; + 5 nM Venetoclax, 5 days) was 0.164 nM and the “Amax (Span) EOL-1” value ([8]; single agent, 5 days) was 91.25. For the same compound, the IC50 ([8]; single agent, 5 days) was 1.42 nM, the “T/C (%)” value ([9]; day 10) was 70% and the “ΔTumor volume (mm^3)” value ([9]; female SCID beige mice, day 10, mean) was 702 mm^3.
